Experimental data from publication PMC11091243, “PD-L1 targeted peptide demonstrates potent antitumor and immunomodulatory activity in cancer immunotherapy” (Frontiers in Immunology, 2024).

Tests used:
[1] = molecular target: human PD-L1 (hPD-L1) (Homo sapiens, UniProt Q9NZQ7); assay: Fluorescence-based ELISA, binding specificity; conditions: 20 μmol/L FITC-labeled peptide, 1.5 h room temperature, n = 3
Procedure: (§1) Fluorescence-based ELISA and cell-based tests were used to examine the binding specificity of PPL-C to PD-L1. To perform the ELISA, fluorescent plates were coated with 100 μL human PD-L1 (hPD-L1), mouse PD-L1 (mPD-L1), and BSA in PBS (pH 7.4) overnight at 4°C, respectively. Blocked the plates with 1% BSA (in PBST) for an hour at room temperature and rinsed twice with PBST. Then added peptides (20 μmol/L FITC-labeled PPL-C/Control peptide) and incubated for 1.5 hours at room temperature. With excitation at 488 nm and emission at 515 nm, the Cytation 3 instrument (BioTek) was used to measure the relative fluorescence intensity. Both attached and detached cells were used in the cell-based flow cytometry analysis. […] After that, cells were treated for 40 minutes at 4°C on an inversion shaker with PD-L1 antibody from Biolegend and 4 μmol/L FITC-labeled peptides (PPL-C/Control peptide). Each tube was washed twice with PBS following incubation and flow cytometry was carried out using a FACSort device. FlowJo software was used to evaluate the data that was acquired.

[2] = molecular target: mouse PD-L1 (mPD-L1) (Mus musculus, UniProt Q9EP73); assay: Fluorescence-based ELISA, binding specificity; conditions: 20 μmol/L FITC-labeled peptide, 1.5 h room temperature, n = 3
Chain of mouse PD-L1 (mPD-L1) (Q9EP73 19-290): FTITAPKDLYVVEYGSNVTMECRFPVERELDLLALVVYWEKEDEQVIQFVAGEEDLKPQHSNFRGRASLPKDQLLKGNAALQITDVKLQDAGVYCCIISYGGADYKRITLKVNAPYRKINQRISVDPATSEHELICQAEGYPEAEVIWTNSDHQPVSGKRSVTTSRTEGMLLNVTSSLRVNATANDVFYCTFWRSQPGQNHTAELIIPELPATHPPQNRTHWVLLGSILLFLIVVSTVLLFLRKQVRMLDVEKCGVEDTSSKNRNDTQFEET
Procedure: as §1

[3] = system: MDA-MB-231 cells; assay: Flow cytometry binding to MDA-MB-231 cells; type: cell-based, human; conditions: higher PD-L1 expression than MC38
Procedure: as §1

[4] = system: LLC cells; assay: Flow cytometry binding to LLC cells; type: cell-based, mouse; conditions: higher PD-L1 expression than MC38
Procedure: as §1

[5] = system: MC38 cells; assay: Flow cytometry binding to MC38 cells; type: cell-based, mouse; conditions: relatively low PD-L1 expression
Procedure: as §1

[6] = system: PD-L1-mediated suppression of CD4+ T cells; assay: T-cell activation assay (CD4+ T cells on anti-CD3/PD-L1 coated plates); type: cell-based, mouse
Procedure: Following the manufacturer’s instructions, mouse peripheral blood mononuclear cells (PBMCs) were isolated from a healthy mouse using separation fluid. Then, CD4 (L3T4) MicroBeads were used to separate CD4+ T cells from PBMCs, and a CD4-PE/Cy5 antibody was employed to determine effectiveness. Cells were adjusted to a concentration of 5×10^5 cells/mL in IMDM supplemented with 10% FBS and 20 ng/mL IL-2 to produce CD4+ T-cell blasts. A 1:1 ratio of mouse T-activator CD3/CD28 beads was introduced to the cells. Every other day, new media was added, and on day 7, cells were collected and stored for later use. 100 μL of anti-mouse CD3 (1 μg/mL) were applied to each well and incubated at 4°C overnight. Next, the wells were rinsed twice with […] of PBS. The wells were then filled with 100 μL of PD-L1 […] and the plates were incubated at 37°C for 3 hours before receiving two PBS washes. Then, varying quantities of PD-L1 monoclonal antibodies and peptides (PPL-C or control peptide) were added to the appropriate wells, and the plates were incubated at 37°C for an hour. The wells were then washed twice with PBS. Finally, CD4^+ T cells (5×10^4 cells/well) were added, then centrifugated the plate at 1,000 RMP for 2 min. The cells were then cultured for three days at 37°C in a humidified incubator with 5% CO2. A mouse IFN-γ ELISA Kit was used to assess the quantity of IFN-γ in culture supernatant. […]

[7] = system: splenic lymphocyte subsets of CT26-bearing Balb/c mice; assay: Flow cytometry of spleen lymphocytes of CT26-bearing mice after treatment; type: in vivo; conditions: mouse, in vivo
Procedure: The mice’s tumor volumes were measured by calipers after they were randomly allocated to various treatment groups. Every day tumor volumes were measured along axes (a and b) that are orthogonal to one another, and they were estimated by the equation tumor volume = π/6 × a × b^2. After the tumor was established (approximately 7 days), each group was subcutaneously injected with PPL-C (6 or 11 mg/kg), control peptide (11 mg/kg), endotoxin-free PD-L1 antibody (200 μg), or control antibody, following specific treatment procedures outlined in the flow chart. The Kaplan-Meier technique was used to determine survival differences for each group, and the log-rank test using the survival R package version 2.38-3 was applied to get the overall p-value.
To differentiate lymphocytes, spleen monocytes were separated via isodensity centrifugation. For flow cytometry evaluation, cell-surface and intracellular staining was achieved through reagents from BD Biosciences or Biolegend, following previously described protocols. Re-suspending the 1× 10^6 cells in 100 μL of PBS before incubating them with the appropriate antibodies. Data were collected using a BD Biosciences FACSCalibur flow cytometer, Germany, and analyzed using FlowJo 7.6 software, USA. Based on scatter signals and 7-Amino-actinomycin D fluorescence, dead cells, and cell debris were removed from the study.

[8] = system: serum cytokines of CT26-bearing mice; assay: Cytokine ELISA of serum of treated CT26-bearing mice; type: in vivo, mouse; conditions: 14 days of administration, versus untreated and control peptide groups
Procedure: After 14 days of continuous administration, 0.5-1.0 ml of peripheral blood was collected from the mice. Serum was isolated from peripheral blood using the posterior orbital venous plexus blood collection method. The serum was obtained by centrifuging at 2000 RMP for 10 minutes. Mouse total lymphocytes were isolated from the spleen using Ficoll density gradient fractionation (Shanghai Biotech Bioengineering). In 200 μL of RIPM medium with 10% FBS, 1×10^6 tumor cells were seeded in each well with a CT26: lymphocyte ratio of 1:2 and incubated for 48 and 72 hours. Cell growth medium was harvested by centrifuging at 2000 RPM for 10 min. For the analysis of cytokine production, lymphocyte growth media served as a positive control and cell-free growth medium served as a negative control. Following the manufacturer’s instructions, the levels of IL-2, IL-4, IL-6, IL-10, TNF-α and IFN-γ in the blood and cell growth media were assessed using LEGEND MAX™ ELISA kit (BioLegend Inc, USA). Three duplicates of each experiment were carried out.

[9] = system: CT26 cells; assay: Cytotoxicity of spleen lymphocytes of treated mice against CT26 cells (CCK8); type: cell-based, mouse; conditions: CT26:lymphocyte 1:2, 48 h, CCK8, n = 6, versus untreated and control peptide groups
Procedure: After 14 consecutive days of administration, total lymphocytes were isolated from mouse spleens using Ficoll density gradient fractionation, which was provided by Shanghai Biotech Bioengineering. Before co-incubation with lymphocytes, CT26 cells were treated with 100 μg/mL mitomycin C (MMC) for 2 hours for […] experiments. For cytotoxicity experiments, about 1×10^6 tumor cells were seeded in each well with a CT26: lymphocyte ratio of 1: 2 in 200 μL RIPM medium plus 10% FBS for 48 h. A corresponding negative control group was also designed. During the final two hours of the incubation, 10 µL of CCK8 reagent was added to each well following the manufacturer’s instructions (Biotech Bioengineering Cat: E606335). Using an ELISA plate reader (Molecular Devices, USA) the absorbance was determined at 450 nm. There were three duplicates of each experiment.

Chain of human PD-L1 (hPD-L1) (Q9NZQ7 19-290): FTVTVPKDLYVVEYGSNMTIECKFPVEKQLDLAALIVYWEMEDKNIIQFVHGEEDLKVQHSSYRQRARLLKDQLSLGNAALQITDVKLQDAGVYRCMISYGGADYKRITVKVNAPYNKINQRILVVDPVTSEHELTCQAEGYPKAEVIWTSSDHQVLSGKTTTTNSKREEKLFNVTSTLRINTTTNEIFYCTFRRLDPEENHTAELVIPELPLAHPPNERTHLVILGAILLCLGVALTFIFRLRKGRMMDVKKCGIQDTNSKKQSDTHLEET

## CC(C)[C@H](NC(=O)[C@H](CO)NC(=O)[C@@H](NC(=O)[C@@H](N)CO)C(C)C)C(=O)N[C@@H](CO)C(=O)N[C@@H](Cc1c[nH]cn1)C(=O)N[C@@H](Cc1ccccc1)C(=O)N[C@@H](CCC(N)=O)C(=O)N[C@@H](CCCCN)C(=O)N[C@H](C(=O)N[C@@H](Cc1c[nH]c2ccccc12)C(=O)N[C@H](C(=O)N[C@H](C(=O)NCC(=O)NCC(=O)NCC(=O)N[C@@H](CO)C(=O)N[C@@H](CCCCN)C(N)=O)C(C)C)C(C)C)C(C)C [PPL-C]
[1]
  Binding to hPD-L1: cross-reactivity
[2]
  Binding to mPD-L1: higher specificity
[3]
  Affinity to MDA-MB-231 cells: higher affinity
[4]
  Affinity to LLC cells: higher affinity
[5]
  Affinity to MC38 cells: low affinity
[6]; 20 μmol/L, CCK-8, n = 3
  T-cell proliferation: increased significantly
[6]; versus control peptide, 3 days, ELISA, n = 3
  IFN-γ release of CD4+ T lymphocytes: significant increase
[7]
  Percentage of NK cells in spleen (CD49b/Nkp46, upper right quadrant): 7.79%
[8]
  IFN-γ, IL-2, IL-4 and IL-6 secretion in serum: significantly promoted
  IL-10 secretion in serum: lower IL-10 secretion
[9]
  Effect of lymphocytes from treated mice on tumor cell proliferation: significantly inhibited tumor cell proliferation
